Laboratory results reported in article PMC9926234, “Iterative computational design and crystallographic screening identifies potent inhibitors targeting the Nsp3 macrodomain of SARS-CoV-2” (Proceedings of the National Academy of Sciences of the …, 2023).
“And” between values parts separate entries of the source, which are not always exact repeats. Equal entries are not always repeated. Where two headings read alike, the source gives them in different places.

What was measured:
[1] = test system: P-glycoprotein (human MDR1); assay: MDR1-MDCK II cell permeability; conditions: dog, MDCK-MDR1, pH 7.4
SARS-CoV-2 NSP3 Mac1 [2] = molecular target: T1, SARS-CoV-2 NSP3 Mac1 (Severe acute respiratory syndrome coronavirus 2, UniProt P0DTD1); assay: biochemical; format: binding; conditions: for IC50: read-out: IC50
TARG1 = molecular target: T2, TARG1 (Homo sapiens, UniProt Q9Y530); assay: adapted HTRF-based peptide displacement assay (off-target); format: binding
T2 construct: Targ1_HTRF; HTRF assay; pET22b(+); His6, TEV; 1-153; made in house
T2 sequence (Q9Y530 with tags, fused parts or gaps): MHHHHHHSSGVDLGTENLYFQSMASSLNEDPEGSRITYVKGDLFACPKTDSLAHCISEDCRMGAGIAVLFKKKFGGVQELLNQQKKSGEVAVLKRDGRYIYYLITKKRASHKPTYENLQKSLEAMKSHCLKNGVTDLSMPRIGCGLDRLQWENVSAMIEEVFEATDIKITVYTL

MacroD2 = molecular target: T3, MacroD2 (Homo sapiens, UniProt A1Z1Q3); assay: as above; format: binding; conditions: compound at 1 mM
T3 construct: MacroD2_HTRF; HTRF assay; pET22b(+); His6, TEV, Avi; made in house
T3 sequence (A1Z1Q3 with tags, fused parts or gaps): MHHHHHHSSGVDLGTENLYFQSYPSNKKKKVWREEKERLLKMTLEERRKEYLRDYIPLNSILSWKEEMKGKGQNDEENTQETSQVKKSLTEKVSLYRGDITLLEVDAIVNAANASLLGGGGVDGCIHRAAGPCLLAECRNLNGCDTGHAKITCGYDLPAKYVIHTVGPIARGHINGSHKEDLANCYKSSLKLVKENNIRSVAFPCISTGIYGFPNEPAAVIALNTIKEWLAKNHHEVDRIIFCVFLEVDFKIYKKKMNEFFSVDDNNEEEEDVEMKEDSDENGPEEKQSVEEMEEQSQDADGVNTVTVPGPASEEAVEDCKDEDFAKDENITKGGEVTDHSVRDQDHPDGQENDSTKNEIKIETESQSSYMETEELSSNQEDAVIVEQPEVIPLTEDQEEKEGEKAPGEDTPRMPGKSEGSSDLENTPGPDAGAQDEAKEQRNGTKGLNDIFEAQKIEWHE

SARS-CoV-2 NSP3 Mac1 [3] = molecular target: T1, SARS-CoV-2 NSP3 Mac1; format: binding
MDR1-MDCKII cells = assay: MDR1-MDCK II cell permeability; conditions: MDR1-MDCKII cells
SARS-CoV-2 NSP3 Mac1 [4] = molecular target: T1, SARS-CoV-2 NSP3 Mac1; format: binding; design: contains a conserved macrodomain enzyme (Mac1)
Method in brief: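 ΔTma values are thermal shifts relative to a co-located DMSO-only control, read with 5 µM Fluorescent Yellow dye. Each compound was tested in triplicate over seven concentrations (two-fold steps, top 1,000 or 100 μM). Spearman correlation of concentration versus ΔTma tested whether the shift was dose-responsive.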

SARS-CoV-2 NSP3 Mac1 [5] = molecular target: T1, SARS-CoV-2 NSP3 Mac1; assay: biochemical; design: HTRF ADPr-peptide displacement assay with Mac1, dose-response IC50; conditions: read-out: IC50 [µM] / 0.5, 1.2, 1.4
SARS-CoV-2 NSP3 Mac1 [6] = molecular target: T1, SARS-CoV-2 NSP3 Mac1; design: contains a conserved macrodomain enzyme (Mac1); differential scanning fluorimetry, maximum thermal upshift; conditions: binder
SARS-CoV-2 NSP3 Mac1 [7] = molecular target: T1, SARS-CoV-2 NSP3 Mac1; design: contains a conserved macrodomain enzyme (Mac1); Differential scanning fluorimetry of Mac1, maximum thermal upshift; conditions: maximum shift over tested concentrations; binder
SARS-CoV-2 NSP3 Mac1 [8] = molecular target: T1, SARS-CoV-2 NSP3 Mac1; design: method as in PMID 33853786; conditions: cited from earlier work

Structure (SMILES): CC(C(=O)O)c1cccc(C(=O)c2ccccc2)c1 (centres unmarked) [Ketoprofen]
- Papp A→B at 90 min, 10 µM [1]: 17.6 ± 2.5 ×10⁻⁶ cm/s
- Papp B→A at 90 min, 10 µM [1]: 16.1 ± 0.5 ×10⁻⁶ cm/s

Structure (SMILES): O=C(O)C1(F)CN(c2ncnc3[nH]c4cc(F)ccc4c23)CC12CCC2 (centres unmarked) [LL1_0023]
- IC50 (SARS-CoV-2 NSP3 Mac1 [2]; HTRF ADPr-peptide displacement from SARS-CoV-2 Mac1): 6 to 10 µM and 5.8 to 10.9 µM
- IC50 (SARS-CoV-2 NSP3 Mac1 [2]; HTRF): 5.8 µM and 10.9 µM
- Ki (SARS-CoV-2 NSP3 Mac1 [2]; Ki estimation from HTRF-derived IC50, Cheng-Prusoff, peptide 400nM, Kd 2.68µM, read-out: Ki***): 5 µM and 9.5 µM
- displacement of the ADPr-conjugated peptide (off-target activity) (TARG1; compound at 50 µM): active
- displacement of the ADPr-conjugated peptide (off-target activity) (TARG1; compound at 1 mM): 50%
- displacement of the ADPr-conjugated peptide (off-target activity) (MacroD2): 50%
- 1-BDC (SARS-CoV-2 NSP3 Mac1 [3]; PanDDA 1-BDC value of the event, crystal soak, compound concentration 100 mM, per dataset): 0.28
- 1-BDC (PanDDA) (SARS-CoV-2 NSP3 Mac1 [3]; PanDDA event map, 1 minus background density correction, crystal soaking of Mac1): 0.16
- PanDDA hit? (SARS-CoV-2 NSP3 Mac1 [3]; crystal soak, compound concentration 100 mM, per dataset): TRUE
- Modeled? (SARS-CoV-2 NSP3 Mac1 [3]; ligand modeled from this dataset, compound concentration 100 mM): TRUE
- Refined occupancy (SARS-CoV-2 NSP3 Mac1 [3]; ligand occupancy after refinement (phenix.refine), crystal soaking of Mac1): 32
- HIT* (SARS-CoV-2 NSP3 Mac1 [3]; true hit = binding in crystallographic soaking or the HTRF-based binding assay): Y
- permeability relative to the Z8539 scaffold (MDR1-MDCKII cells): 3 fold
- Spearman est (compound concentration vs apparent Tm) (SARS-CoV-2 NSP3 Mac1 [4]; DSF dose responsiveness, 1 µM nsp3 mac1, adj p given): 0.98
- DSF max dTma (SARS-CoV-2 NSP3 Mac1 [4]; maximal thermal upshift): 4.53 ˚C

Structure (SMILES): O=C(NC1c2cccc(O)c2CC1C(=O)O)c1cnc2c(c1)CCCN2 (centres unmarked) [Z8539_0006, 8539_0006]
- IC50 (SARS-CoV-2 NSP3 Mac1 [5]): 168 µM
- DSF max dTma (SARS-CoV-2 NSP3 Mac1 [6]): 0 degC

Structure (SMILES): O=C1COc2cc(C(=O)NC3c4cccc(O)c4CC3C(=O)O)ccc2N1 (centres unmarked) [Z8539_0014, 8539_0014]
- IC50 (SARS-CoV-2 NSP3 Mac1 [5]): 27.9 µM
- DSF max dTma (SARS-CoV-2 NSP3 Mac1 [7]): 1.83 °C

Structure (SMILES): O=C(Nc1ccc(C(=O)NC2c3ccccc3CC2C(=O)O)cc1)NC1CC1 (centres unmarked) [Z8539_0029, 8539_0029]
- IC50 (SARS-CoV-2 NSP3 Mac1 [5]): 4.8 µM
- DSF max dTma (SARS-CoV-2 NSP3 Mac1 [7]): 3.66 °C

Structure (SMILES): O=C(Nc1ccc(C(=O)N[C@H]2c3ccccc3CC[C@H]2C(=O)O)cc1)NC1CC1 [Z8539_0030, 8539_0030]
- IC50 (SARS-CoV-2 NSP3 Mac1 [5]): 5.9 µM
- DSF max dTma (SARS-CoV-2 NSP3 Mac1 [7]): 4.92 °C

Structure (SMILES): Nc1ccc(C(=O)O)cc1 [ZINC920, 4-aminobenzoic acid]
- binding to Mac1 in the fragment screen, result in words (SARS-CoV-2 NSP3 Mac1 [8]): did not bind
